Laboratory results from US20240067631A1, “PYRAZOLE DERIVATIVES USEFUL AS NAMPT MODULATORS” (Cytokinetics, Inc., priority 2020, published 2024).

Molecular target: human NAMPT (Homo sapiens (Human), UniProt P43490)
Test: Human recombinant enzyme assay (NMN fluorescence biochemical assay)
Details: 6 nM human NAMPT, 60 min; for AC1.4 Human: concentration of compound that generates 40% higher activity over basal; for EC50: concentration that gives half-maximal activation
Outline: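 Recombinant human NAMPT (6 nM) with 2.5 mM ATP, […] PRPP and […] nicotinamide in HEPES pH 7.2 with DTT, CHAPS, NaCl, MgCl2; 60 min at ambient temperature. NMN derivatised with acetophenone/KOH/formic acid, fluorescence read at 355/460 nm. AC1.4 (40% above basal) and EC50 reported.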

Sequence of human NAMPT (P43490 whole entry): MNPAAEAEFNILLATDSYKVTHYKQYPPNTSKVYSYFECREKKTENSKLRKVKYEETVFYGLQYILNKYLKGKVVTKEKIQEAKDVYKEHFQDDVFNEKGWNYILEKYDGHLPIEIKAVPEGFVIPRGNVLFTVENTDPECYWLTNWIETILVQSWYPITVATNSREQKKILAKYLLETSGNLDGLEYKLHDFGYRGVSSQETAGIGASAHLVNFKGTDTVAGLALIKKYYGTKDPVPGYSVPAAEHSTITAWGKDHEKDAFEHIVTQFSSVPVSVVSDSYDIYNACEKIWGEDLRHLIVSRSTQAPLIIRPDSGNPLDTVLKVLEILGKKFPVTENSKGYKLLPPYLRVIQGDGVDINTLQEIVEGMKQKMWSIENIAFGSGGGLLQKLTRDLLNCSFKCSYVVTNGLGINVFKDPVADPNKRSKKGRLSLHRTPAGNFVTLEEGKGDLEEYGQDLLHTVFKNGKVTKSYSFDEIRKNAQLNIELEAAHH

| AC1.4 Human | EC50 | SMILES |
| --- | --- | --- |
| 1.3275 µM | 5.15 µM | Cc1nc(C(=O)NC(c2ccccc2F)c2nccn2C)nc(NCCc2cn[nH]c2)c1C (centres unmarked) [Compound 98, 4-((2-(1H-pyrazol-4-yl)ethyl)amino)-N-((2-fluorophenyl)(1-methyl-1H-imidazol-2-yl)methyl)-5,6-dimethylpyrimidine-2-carboxamide] |
| 0.214 µM | 1.27 µM | Cc1nc(C(=O)NC(c2ccccc2)c2nccn2C)nc(NCCc2cn[nH]c2)c1C (centres unmarked) [Compound 40, 4-((2-(1H-pyrazol-4-yl)ethyl)amino)-5,6-dimethyl-N-((1-methyl-1H-imidazol-2-yl)(phenyl)methyl)pyrimidine-2-carboxamide] |
| 3.235 µM | 28 µM | Cc1nc(C(=O)NCC(O)C(F)(F)F)nc(NCCc2cn[nH]c2)c1C (centres unmarked) [Compound 128, 4-((2-(1H-pyrazol-4-yl)ethyl)amino)-5,6-dimethyl-N-(3,3,3-trifluoro-2-hydroxypropyl)pyrimidine-2-carboxamide] |
| 0.12 µM | – | Cc1nc(C(=O)N2CCC[C@@H]2c2cccc(F)c2)nc(NCCc2cn[nH]c2)c1F [Compound 150, (R)-(4-((2-(1H-pyrazol-4-yl)ethyl)amino)-5-fluoro-6-methylpyrimidin-2-yl)(2-(3-fluorophenyl)pyrrolidin-1-yl)methanone] |
| 3.487 µM | 10.8 µM | Cc1cccc([C@H]2CCCN2C(=O)c2nc(C)c(C)c(NCCc3cn[nH]c3)n2)n1 [Compound 131, (R)-(4-((2-(1H-pyrazol-4-yl)ethyl)amino)-5,6-dimethylpyrimidin-2-yl)(2-(6-methylpyridin-2-yl)pyrrolidin-1-yl)methanone] |
| 0.439 µM | 1.37 µM | Cc1nc(C(=O)N[C@H](C)c2ncccc2F)nc(NCCc2cn[nH]c2)c1C [Compound 56, (R)-4-((2-(1H-pyrazol-4-yl)ethyl)amino)-N-(1-(3-fluoropyridin-2-yl)ethyl)-5,6-dimethylpyrimidine-2-carboxamide] |
| 3.249 µM | 21.3 µM | Cc1nc(C(=O)NCCc2cncc(F)c2)nc(NCCc2cn[nH]c2)c1C [Compound 129, 4-((2-(1H-pyrazol-4-yl)ethyl)amino)-N-(2-(5-fluoropyridin-3-yl)ethyl)-5,6-dimethylpyrimidine-2-carboxamide] |
| 1.669 µM | 2.52 µM | Cc1nc(C(=O)NCc2n[nH]c3ccccc23)nc(NCCc2cn[nH]c2)c1C [Compound 105, N-((1H-indazol-3-yl)methyl)-4-((2-(1H-pyrazol-4-yl)ethyl)amino)-5,6-dimethylpyrimidine-2-carboxamide] |
| 0.231 µM | 0.617 µM | Cc1nc(C(=O)N[C@H](C)c2ccsc2)nc(NCCc2cn[nH]c2)c1C [Compound 35] |
